According to the NIST ThermoML archive (doi:10.1021/acs.jced.9b00536):

Experiment: refractive index (Na D-line) (dimensionless); wn = mass fraction of the nth substance listed
Settings: 100 kPa, Liquid, Standard Abbe refractometry

[Na+].[OH-] [sodium hydroxide] + O
refractive index
Settings	283.15 K	288.15 K	293.15 K
w1 = 0.2	1.3856	1.3847	1.3838
w1 = 0.21	1.3875	1.3866	1.3858
w1 = 0.22	1.3904	1.3895	1.3886
w1 = 0.23	1.3922	1.3912	1.3903
w1 = 0.24	1.3941	1.3932	1.3923
w1 = 0.25	1.3969	1.3961	1.3952
w1 = 0.26	1.3991	1.3982	1.3974
w1 = 0.27	1.4009	1.4	1.3991
w1 = 0.28	1.4028	1.4019	1.4011
w1 = 0.29	1.4053	1.4044	1.4035
w1 = 0.3	1.4066	1.4056	1.4048
w1 = 0.31	1.4087	1.4077	1.4068
w1 = 0.32	1.4099	1.4091	1.4081
w1 = 0.33	1.4115	1.4107	1.4097
w1 = 0.34	1.4141	1.4132	1.4123
w1 = 0.35	1.416	1.4151	1.4142
w1 = 0.36	1.4175	1.4167	1.4158
w1 = 0.37	1.419	1.4181	1.4172
w1 = 0.38	1.4209	1.42	1.4191
w1 = 0.39	1.4226	1.4217	1.4208
w1 = 0.4	1.4241	1.4232	1.4223
w1 = 0.41	1.4252	1.4243	1.4234
w1 = 0.42	1.4269	1.426	1.425
w1 = 0.43	1.4281	1.4272	–
w1 = 0.44	1.4293	1.4284	–
w1 = 0.45	1.4303	1.4295	–
w1 = 0.46	1.4321	1.4312	–
w1 = 0.47	1.4332	1.4323	–
w1 = 0.48	1.4347	1.4338	–
w1 = 0.49	1.4356	1.4347	–
w1 = 0.5	1.4365	1.4355	–
